In ChEMBL document CHEMBL2046398, “Optimization of (2,3-dihydro-1-benzofuran-3-yl)acetic acids: discovery of a non-free fatty acid-like, highly bioavailable G protein-coupled receptor 40/free fatty acid receptor 1 agonist as a glucose-dependent insulinotropic agent” (J Med Chem, 2012):

Experiments:
Details in all cases: in vivo; call rule not given here
Canis familiaris [1] = species: Canis familiaris; assay: Drug metabolism in dog assessed as biphenylylcarboxylic acid derivative formation measured in feces; type: ADME, organism-based, Canis lupus familiaris
Rattus norvegicus [2] = species: Rattus norvegicus; assay: Drug metabolism in rat assessed as biphenylylcarboxylic acid derivative formation in feces; type: ADME, organism-based
Rattus norvegicus [3] = species: Rattus norvegicus; assay: Drug metabolism in rat assessed as acyl glucuronide derivative formation in bile; type: ADME, organism-based
Canis familiaris [4] = species: Canis familiaris; assay: Drug metabolism in dog assessed as acyl glucuronide derivative formation measured in feces; type: ADME, organism-based, Canis lupus familiaris
Canis familiaris [5] = species: Canis familiaris; assay: Drug metabolism in dog assessed as beta-oxidation derivative formation; type: ADME, organism-based, Canis lupus familiaris
Rattus norvegicus [6] = species: Rattus norvegicus; assay: Drug metabolism in rat assessed as beta-oxidation derivative formation; type: ADME, organism-based
Rattus norvegicus [7] = species: Rattus norvegicus; assay: Drug metabolism in rat assessed as taurine conjugate formation measured in feces; type: ADME, organism-based
Canis familiaris [8] = species: Canis familiaris; assay: Drug metabolism in dog assessed as taurine conjugate formation measured in feces; type: ADME, organism-based, Canis lupus familiaris
Rattus norvegicus [9] = species: Rattus norvegicus; assay: Drug metabolism in rat assessed as biphenylylcarboxylic acid derivative formation; type: ADME, organism-based
Rattus norvegicus [10] = species: Rattus norvegicus; assay: Drug metabolism in rat assessed as acyl glucuronide derivative formation measured in feces; type: ADME, organism-based
Rattus norvegicus [11] = species: Rattus norvegicus; assay: Drug metabolism in rat assessed as taurine conjugate formation measured in bile; type: ADME, organism-based

Drug metabolism (Canis familiaris [1]): Active
Drug metabolism (Rattus norvegicus [2]): Active
Drug metabolism (Rattus norvegicus [3]): Active
Drug metabolism (Canis familiaris [4]): Active
Drug metabolism (Canis familiaris [5]): Not Active
Drug metabolism (Rattus norvegicus [6]): Not Active
Drug metabolism (Rattus norvegicus [7]): Active
Drug metabolism (Canis familiaris [8]): Active
Drug metabolism (Rattus norvegicus [9]): Active
Drug metabolism (Rattus norvegicus [10]): Active
Drug metabolism (Rattus norvegicus [11]): Active
Compound: Cc1cc(OCCCS(C)(=O)=O)cc(C)c1-c1cccc([14CH2]Oc2ccc3c(c2)OC[C@H]3CC(=O)O)c1
